Among the data in PubChem BioAssay (NCI) are GI50 and TGI values, retold here.

What all share (assay): growth of human tumour cells (NCI), 48 h
Test [1] has as its system 786-0 renal.
For test [2], the system named is HL-60(TB) leukemia.
In test [3] the test system is HOP-62 NSCLC.
Test [4] relates to HOP-92 NSCLC.
Test [5] has as its system MOLT-4 leukemia.
For test [6], the system named is NCI-H226 lung.
Test [7] relates to SK-MEL-2 melanoma.
In test [8] the test system is SK-MEL-5 melanoma.
For test [9], the system named is UACC-62 melanoma.
Test [10] has as its system UACC-257 melanoma.

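Cells were grown in 96-well plates and exposed to each compound for 48 hours at five concentrations; endpoints were interpolated linearly between bracketing concentrations, or set to the highest concentration if not reached. GI50: concentration for 50% inhibition of growth. TGI: concentration producing complete growth inhibition.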

Take `CCC[CH2][Sn-]([CH2]CCC)([CH2]CCC)[O]c1cc(Cl)c(Cl)cc1Cl`: the GI50 in [1] was 0.163 µM; in test [2] it was 0.0184 µM; in test [3], 0.228 µM; in test [4], 0.106 µM; in test [5], 0.167 µM; in test [6] it was 0.00872 µM. For the same compound, the GI50 is 0.377 µM in test [7], 0.168 µM in test [8] and 0.152 µM in [9]. Moreover, the TGI in test [1] was determined as 0.318 µM; in [2], 0.167 µM; in test [3], 0.507 µM; in test [4] it was 0.395 µM; in test [5], 0.545 µM; in [6] it was 0.244 µM. Further, the TGI in test [7] is 1.86 µM; in [8], 0.335 µM; in test [9] it was 0.394 µM.

On to `Cc1ccc(-[n+]2c3cc(N)c(C)cc3nc3cc(C)c(Nc4ccccc4)cc32)cc1`, for which the GI50 was 0.2 µM in [1]; 0.102 µM in test [2]; 0.0472 µM in test [3]; 0.15 µM in test [4]; 0.244 µM in test [5]; 0.235 µM in [7]. Further, the GI50 in test [8] was 0.147 µM; in test [10], 0.242 µM; in [9] it was 0.236 µM. For the same compound, the TGI in test [1] was 0.644 µM; in [2], 0.482 µM; in [3], 0.397 µM; in test [4], 0.556 µM; in test [5], 1.69 µM; in [7] it was 0.538 µM. For the same compound, the TGI in [8] stood at 0.289 µM; in test [10] it was 0.952 µM; in test [9] it was 0.979 µM.

`O=c1c2ccccc2[nH]c(=S)n1-c1ccc(Br)cc1`: the TGI was > 100 µM in [1]; > 100 µM in test [2]; > 100 µM in test [3]; 70 µM in test [4]; > 100 µM in [5]; > 100 µM in [6]. The TGI in test [7] and in test [10] was > 100 µM throughout.

`O=C(c1ccccc1)C(C(=O)c1ccccc1)C1(O)C(=O)c2ccccc2C1=O`: the TGI is > 100 µM in test [1]; 46.9 µM in test [2]; > 100 µM in test [3]; 64.6 µM in test [4]; > 100 µM in [5]; > 100 µM in [6]. For the same compound, the TGI in test [7], in [10] and in [9] was > 100 µM each time.

Consider `Nn1c(-c2ccccc2)nc2ccc(Br)cc2c1=O`, for which the TGI in test [1] was > 100 µM; in test [2], 76.8 µM; in [4], 98 µM; in [5], 50.5 µM; in [6], > 100 µM; in [7], > 100 µM. For the same compound, the TGI in test [8], in [10] and in test [9] was > 100 µM in each case.

As for `O=c1oc2cc(OS(=O)(=O)c3ccc(F)cc3)ccc2c2c1CCCCC2`, the GI50 is > 100 µM in test [1]; > 100 µM in test [2]; 45.1 µM in test [3]; 4.05 µM in [4]; > 100 µM in test [5]; > 100 µM in test [6]. Moreover, the GI50 in test [7] is > 100 µM; in test [8], 5.69 µM; in test [10], > 100 µM. Besides, the TGI in [1] is > 100 µM; in [2] it was > 100 µM; in [3], > 100 µM; in test [4] it was 95.1 µM; in test [5], > 100 µM; in test [6], > 100 µM. The TGI in [7], in [8] and in test [10] was > 100 µM each time.

On to `Cn1c2c(c3ccccc31)CCN(CCCCN1CCc3c(n(C)c4ccccc34)C1=O)C2`, for which the TGI in test [1], in test [2], in test [3], in [4], in test [5] and in test [7] was > 100 µM each time. Also, the TGI in test [8], in [10] and in test [9] was > 100 µM each time.

Consider `O=C(O)c1c(-c2cccc3ccccc23)sc(-c2cccc3ccccc23)c1C(=O)O`, for which the TGI was > 100 µM in test [1]; > 100 µM in test [2]; > 100 µM in test [4]; 85.7 µM in test [5]; > 100 µM in [6]; > 100 µM in test [7]. Moreover, the TGI in [8], in test [10] and in test [9] was > 100 µM each time.

On to `COc1cc(OC)c([C@@H]2OC(=O)C3C2C(=O)O[C@H]3c2cc(OC)c(OC)cc2OC)cc1OC` (some centres not stated), for which the TGI was > 100 µM in [1]; > 100 µM in test [2]; > 100 µM in test [3]; > 10 µM in [4]; > 100 µM in [5]; > 100 µM in test [7]. Moreover, the TGI in [10] and in test [9] was > 100 µM in each case.

For the compound `COc1ccc2[nH]c3c(c2c1)CCN(C)CC3`, the TGI in test [1], in [2], in [3], in test [4], in test [5] and in test [7] was > 100 µM in each case. In addition, the TGI in [8], in test [10] and in test [9] was > 100 µM each time.

Regarding `Cc1c2c(nn1-c1ccc(S(=O)(=O)NC(=S)Nc3ccccc3)cc1)-c1ccccc1CC2`, the GI50 in [1] is 26.4 µM; in test [2] it was > 50 µM; in test [4], > 50 µM; in [5], > 50 µM; in test [6] it was > 50 µM; in [7] it was > 50 µM. Besides, the GI50 in test [8], in test [10] and in [9] was > 50 µM throughout. The TGI in [1], in test [2], in test [4], in test [5], in test [6] and in [7] was > 50 µM each time. The TGI in [8], in test [10] and in [9] was > 50 µM each time.

Regarding `CC(=O)C1CC(C)=CCC12C(=O)Nc1ccccc12` (configuration not stated), the TGI in test [1], in test [2], in [3], in [4], in [5] and in test [6] was > 100 µM throughout. Besides, the TGI in [7], in test [8] and in test [9] was > 100 µM throughout.
